The text below walks through data of PubChem BioAssay (NCI).

Each structure is given as a SMILES string. Values joined by “and” are separate entries in the source; they are usually repeats but may differ in a detail not shown here. Identical values can stand only once.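 Where inhibition never reached the appropriate level, the endpoint shown equals the highest concentration tested. Otherwise, values were interpolated linearly from a five-concentration, 48-hour dose response in 96-well plates. At the GI50, growth is halved. The concentration for full growth arrest is given as TGI.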

Among the test systems are NCI-H522 lung; RPMI-8226 leukemia; NCI-H23 lung; SK-MEL-2 melanoma; HOP-62 NSCLC; M14 melanoma; OVCAR-8 ovarian; HT29 colon; U251 CNS; A498 renal.
Common to all, as to experiment: growth of human tumour cells (NCI), 48 h

Turning to `Cc1sc2ncnc(Sc3nc4ccccc4[nH]3)c2c1C`, the GI50 is 21.5 µM with NCI-H522 lung; 19.5 µM in the assay with RPMI-8226 leukemia; 30.4 µM in the assay with NCI-H23 lung; 33.5 µM in the assay on SK-MEL-2 melanoma; 18.7 µM in the assay on HOP-62 NSCLC; 41.1 µM with M14 melanoma. Moreover, the GI50 was 20.7 µM with OVCAR-8 ovarian, 21.9 µM with HT29 colon, 18.8 µM in the assay on U251 CNS and 12.2 µM in the assay on A498 renal. The TGI in the assay on NCI-H522 lung is 61.2 µM; in the assay with RPMI-8226 leukemia it was > 100 µM; in the assay on NCI-H23 lung it was > 100 µM; with SK-MEL-2 melanoma, 99 µM; in the assay on HOP-62 NSCLC, 52 µM; with M14 melanoma, > 100 µM. Besides, the TGI in the assay with OVCAR-8 ovarian turned out to be 62.7 µM; in the assay on HT29 colon, 53.6 µM; in the assay with U251 CNS, 43.2 µM; in the assay on A498 renal, 52.9 µM.

On to `Cc1c(C(=O)/C=C/c2ccc(O)cc2)nnn1-c1ccnc2c(C(F)(F)F)cccc12`, for which the GI50 was 6.2 µM with NCI-H522 lung; 2.84 µM in the assay with RPMI-8226 leukemia; 15.2 µM with NCI-H23 lung; > 100 µM in the assay with SK-MEL-2 melanoma; 67.7 µM in the assay with HOP-62 NSCLC; 49.6 µM with M14 melanoma. Moreover, the GI50 in the assay on OVCAR-8 ovarian was 10 µM; in the assay with HT29 colon it was 3.36 µM; in the assay on U251 CNS, 5.14 µM; with A498 renal, 51 µM. In addition, the TGI in the assay with NCI-H522 lung was > 100 µM; with RPMI-8226 leukemia, 21.1 µM; in the assay with NCI-H23 lung, > 100 µM; in the assay with SK-MEL-2 melanoma, > 100 µM; with HOP-62 NSCLC, > 100 µM; in the assay on M14 melanoma it was > 100 µM. Besides, the TGI was > 100 µM in the assay on OVCAR-8 ovarian, 30.1 µM in the assay on HT29 colon, 69.8 µM in the assay on U251 CNS and > 100 µM with A498 renal.

As for `Cn1cnc2c(F)c(Nc3ccc(Br)cc3Cl)c(C(=O)NOCCO)cc21`, the GI50 in the assay on NCI-H522 lung was > 10 µM and 61.3 µM; with RPMI-8226 leukemia, > 10 µM and 28.2 µM; in the assay with NCI-H23 lung, 0.74 µM and 1.04 µM; in the assay with SK-MEL-2 melanoma, 0.0262 µM and < 0.0122 µM; in the assay on HOP-62 NSCLC it was 0.399 µM and 0.232 µM; in the assay with M14 melanoma, 0.0271 µM and < 0.0144 µM. Also, the GI50 with OVCAR-8 ovarian is > 10 µM and 67.9 µM; in the assay with HT29 colon, 0.0278 µM and 0.0265 µM; in the assay on U251 CNS, > 8.16 µM and 30.1 µM; with A498 renal, 0.103 µM and 0.16 µM. Also, the TGI is > 100 µM with NCI-H522 lung; > 100 µM with RPMI-8226 leukemia; > 100 µM with NCI-H23 lung; 0.78 µM and 0.565 µM with SK-MEL-2 melanoma; > 100 µM in the assay on HOP-62 NSCLC; > 6.91 µM and 4.53 µM with M14 melanoma. Moreover, the TGI in the assay with OVCAR-8 ovarian is > 100 µM; in the assay on HT29 colon, > 100 µM; in the assay on U251 CNS, > 100 µM; in the assay on A498 renal, 1.86 µM and 4.1 µM.

Take `Cc1cc2c(C(C)C)c(O)c(O)c3coc(/c1=c1/c(C)cc4c(C(C)C)c(=O)c(=O)c5coc1c45)c32`: the TGI in the assay with NCI-H522 lung came out at 19 µM; in the assay on RPMI-8226 leukemia, 34.5 µM; with NCI-H23 lung, 9.2 µM; in the assay with SK-MEL-2 melanoma, 17.9 µM; in the assay with HOP-62 NSCLC, 23.7 µM; with M14 melanoma, 25.5 µM. Also, the TGI in the assay on OVCAR-8 ovarian came to 17.1 µM; with HT29 colon, 14.4 µM; in the assay on U251 CNS, 14.3 µM; in the assay on A498 renal, 24.8 µM.

For the molecule `CN(C)c1cccc2[nH]c(-c3[nH]ncc3Nc3ccnc(N)n3)nc12`, the GI50 in the assay with NCI-H522 lung was 0.0221 µM; in the assay on RPMI-8226 leukemia, 0.281 µM; with NCI-H23 lung, 0.0232 µM; with SK-MEL-2 melanoma, 0.021 µM; with HOP-62 NSCLC it was 0.0273 µM; in the assay on M14 melanoma it was 0.0222 µM. For the same molecule, the GI50 was 0.0213 µM with OVCAR-8 ovarian, 0.0286 µM with HT29 colon, < 0.0119 µM in the assay with U251 CNS and 0.013 µM in the assay with A498 renal. Besides, the TGI in the assay with NCI-H522 lung came out at 0.166 µM; in the assay on RPMI-8226 leukemia, 0.885 µM; with NCI-H23 lung, 0.217 µM; in the assay with SK-MEL-2 melanoma, 0.0692 µM; in the assay with HOP-62 NSCLC it was 0.629 µM; in the assay on M14 melanoma, 0.0812 µM. Further, the TGI in the assay with OVCAR-8 ovarian turned out to be 1.68 µM; with HT29 colon, 0.638 µM; in the assay on U251 CNS, 1.33 µM; in the assay with A498 renal, 0.037 µM.

On to `N#C/C(=C\c1cn(-c2ccccc2)c2ccccc12)C(=O)O`, for which the GI50 was 29 µM in the assay on NCI-H522 lung; 43 µM in the assay on RPMI-8226 leukemia; 35.7 µM in the assay with NCI-H23 lung; 28 µM in the assay with SK-MEL-2 melanoma; 39.2 µM in the assay on HOP-62 NSCLC; 61.2 µM with M14 melanoma. Also, the GI50 is 44.6 µM in the assay with OVCAR-8 ovarian, 53.1 µM in the assay on HT29 colon, 35 µM in the assay on U251 CNS and 13.4 µM in the assay with A498 renal. For the same molecule, the TGI in the assay on NCI-H522 lung was 88.8 µM; with RPMI-8226 leukemia, > 100 µM; in the assay with NCI-H23 lung, > 100 µM; in the assay on SK-MEL-2 melanoma, > 100 µM; with HOP-62 NSCLC, > 100 µM; with M14 melanoma it was > 100 µM. Moreover, the TGI with OVCAR-8 ovarian was > 100 µM; in the assay with HT29 colon, > 100 µM; with U251 CNS it was > 100 µM; with A498 renal, 35 µM.

Turning to `C=CCOc1cc2c(cc1C(C)c1ccc(OC)cc1)OCO2` (stereo not given), the TGI with NCI-H522 lung is 0.541 µM; in the assay with RPMI-8226 leukemia it was > 74.4 µM; in the assay on NCI-H23 lung, > 100 µM; in the assay with SK-MEL-2 melanoma it was > 100 µM; in the assay with HOP-62 NSCLC, > 62.7 µM; with M14 melanoma, > 42.8 µM. In addition, the TGI was 5.97 µM in the assay on OVCAR-8 ovarian, 2.26 µM with HT29 colon, > 100 µM in the assay on U251 CNS and > 100 µM in the assay with A498 renal.

On to `COc1cc2c(cc1OC)-c1c(cnn1C1OC(COC(C)=O)C(OC(C)=O)C(OC(C)=O)C1OC(C)=O)CC2` (stereo not given), for which the TGI was 37.3 µM in the assay on NCI-H522 lung; > 57.3 µM with RPMI-8226 leukemia; > 100 µM in the assay with NCI-H23 lung; > 100 µM in the assay on SK-MEL-2 melanoma; > 100 µM in the assay with HOP-62 NSCLC; > 100 µM with M14 melanoma. Also, the TGI in the assay on OVCAR-8 ovarian, in the assay with HT29 colon, in the assay on U251 CNS and in the assay on A498 renal was > 100 µM throughout.
